Assay results taken from patent US20120035320A1, “POLYACRIDINE NUCLEIC ACID DELIVERY PEPTIDE COMPLEXES” (University of Iowa Research Foundation, priority 2010, published 2012).
Entries after “also recorded” stand apart in the source; their conditions may differ. Like-named read-outs stand apart in the source and are kept apart here. No end group written: not given here. *: point of attachment. 6‑(9-acridinylamino)hexanoyl = O=C(CCCCCNc1c2ccccc2nc2ccccc12)*; Acr = acridine on the lysine ε-amine; PEG = not defined here

Legend:
Erythrocytes = experiment: RBC hemolysis assay; type: cell-based, mice; conditions: for hemolytic activity when combined with pGL3: pH 7.4, peptide DNA polyplex 1.5 nmols and 7.5 μg pGL3
Experimental: Whole blood was obtained from male ICR mice by heart puncture with heparinized 22 G needles and collected in conical tubes containing 10 ml of 0.15 M PBS (pH 7.4) prewarmed to 37° C. Erythrocytes were immediately separated from plasma by centrifugation at 2000 rpm for 2 min, washed three times with 10 ml of PBS, and then diluted to 1.5×10^8 cells/ml. Peptides were prepared at 15 μM and serially diluted to 10-0.01 μM, after which 100 μl was pipetted in triplicate into a MultiScreenHTS BV 96 well plate. Erythrocytes (50 μl, 7.5×10^6 cells) were added to the peptides and incubated at 37° C. for 1 h followed by filtration on a Multiscreen vacuum manifold (Millipore Corporation, Billerica, Mass.). The filtrate was measured for Abs410nm on a Biotech plate reader (Biotech Instruments Incorporated., Winooski, Vt.) and compared to the 100% hemolysis caused by replacing PBS with water. Peptide DNA polyplexes (1.5 nmols and 7.5 μg pGL3) were also assayed for hemolysis as described above.

pGL3 [1] = experiment: thiazole orange fluorophore exclusion assay of polyacridine-melittin peptides; type: binding; conditions: pGL3, 0.1 μM thiazole orange
Experimental: The relative binding affinity of peptides for DNA was determined by a fluorophore exclusion assay (Rich, D. H., Gesellchen, P. D., Tong, A., Cheung, A., and Buckner, C. K. (1975) Alkylating derivatives of amino acids and peptides. Synthesis of N-maleoylamino acids, [1-(N-maleoylglycyl)cysteinyl]oxytocin, and [1-(N-maleoyl-11-aminoundecanoyl)cysteinyl]oxytocin. Effects on vasopressin-stimulated water loss from isolated toad bladder. J. Med. Chem. 18, 1004-1010). pGL3 (200 μl of 4 μg/ml in 5 mM Hepes pH 7.5 containing 0.1 μM thiazole orange) was combined with 0, 0.05, 0.1, 0.25, 0.35, 0.5, 1, and 2 nmols of peptide in 300 μl of Hepes and allowed to bind at RT for 30 min. Thiazole orange fluorescence was measured using an LS50B fluorometer (Perkin-Elmer, U.K.) by exciting at 498 nm while monitoring emission at 546 nm with the slit widths set at 10 nm. A fluorescence blank of thiazole orange in the absence of DNA was subtracted from all values before data analysis. The data is presented as nmol of peptide per μg of DNA versus the percent fluorescence intensity±the standard deviation determined by three independent measurements.

liver = experiment: hydrodynamic stimulation and bioluminescence imaging of luciferase expression; type: in vivo, mice; conditions: tail vein 1 μg pGL3 in complex with 0.5 nmol peptide; HD stimulation 30 min after DNA
Experimental: pGL3 (1 μg) was prepared in a volume of normal saline corresponding to 9 wt/vol % of the mouse's body weight (1.8-2.25 ml based on 20-25 g mice). The DNA dose was administered by tail vein to 4-5 mice in 5 sec according to a published procedure (Liu F, Song Y, Liu D. Hydrodynamics-based transfection in animals by systemic administration of plasmid DNA. Gene Ther 1999; 6: 1258-1266; Zhang G, Budker V, Wolff J A. High levels of foreign gene expression in hepatocytes after tail vein injections of naked plasmid DNA. Human Gene Therapy 1999; 10: 1735-1737). Mice (4-5) were also dosed tail vein with 1 μg of PEGylated polyacridine polyplex in 50 μl of HBM (5 mM Hepes, 0.27 M mannitol, pH 7.4). At times ranging from 5-120 min, a stimulatory hydrodynamic dose of normal saline (9 wt/vol % of the body weight) was administered over 5 sec. At 24 hrs post-DNA dose, mice were anesthetized by 3% isofluorane, then administered an i.p. dose of 80 μl (2.4 mg) of D-luciferin (30 μg/μl in phosphate-buffered saline). At 5 min following the D-luciferin dose, mice were imaged for bioluminescence (BLI) on an IVIS Imaging 200 Series (Xenogen). BLI was performed in a light-tight chamber on a temperature-controlled, adjustable stage while isofluorane was administered by a gas manifold at a flow rate of 3%. Images were acquired at a ‘medium’ binning level and a 20 cm field of view. Acquisition times were varied (1 sec^−1 min) depending on the intensity of the luminescence. The Xenogen system reported bioluminescence as photons/sec/cm^2/seradian in a 2.86 cm diameter region of interest covering the liver. The integration area was transformed to pmols of luciferase in the liver using a previously reported standard curve (Rettig G et al. Quantitative Bioluminscence Imaging of Transgene Expression In Vivo. Analytical Biochemistry 2006; 335: 90-94). The results were determined to be statistically significant (p≦0.05) based on a two-tailed unpaired t-test.

[2] = particle size and zeta potential of polyacridine PEG-peptide DNA open polyplexes; type: physicochemical; conditions: for apparent particle diameter: QELS, 0.2 nmols per μg of DNA or higher
Experimental: Polyacridine PEG-peptide DNA polyplexes were formed by combining 10 μg of pGL3 (in 500 μl of 5 mM Hepes pH 7.4) with an equal volume containing either 1, 2, 4, 8, 12, 16, or 20 nmol of polyacridine PEG-peptide while vortexing. The polyplexes were equilibrated at RT for 30 min prior to analysis of particle size (QELS) and zeta potential using a Brookhaven ZetaPlus (Brookhaven Instruments, Holtsville, N.Y.). The particle size diameter and zeta potential are reported as the mean and standard deviation of ten measurements.

pGL3 [3] = experiment: gel band shift assay of acridine PEGs and polyacridine PEG-peptides; type: binding; conditions: constant stoichiometry of 1 nmol per μg of DNA
Experimental: The samples were loaded onto a 1% agarose gel (50 ml) and electrophoresed in TAE buffer at 80 V for 90 min. […] The samples were applied to a 1% agarose gel and electrophoresed as described above.

[4] = tested on: gastrocnemius muscle of ICR male mice; experiment: intramuscle-electroporation dosing and bioluminescence imaging; type: in vivo; conditions: IM-EP
Experimental: Male ICR mice (Harlan), weighing 25-30 g were prepared for IM-EP dosing by anesthetization with an intraperitoneal dose of 200 μl of ketamine/xylazine (20 mg/ml and 2 mg/ml, respectively). The hamstring muscles were sheared and swabbed with 70% ethanol prior to administering a 50 μl dose over 10 sec in normal saline to both gastrocnemius muscles in 2 mice by a 1 ml monoject syringe (1 cc, 28 G×½). After dosing the BTX 2-Needle Array Electrode was inserted into the skin with the electrodes straddling the dosing site. Successive electronic stimulation was generated by the EMC BTX 830, Square-wave Pulse Generator (BTX, Harvard Apparatus) as the power source. At 1 min post-administration of the DNA dose, the pulse generator delivered six successive 100 V pulses over 20 msec with a 100 msec interval between pulses (31).
Luciferase reporter gene expression was quantified by bioluminescence imaging (BLI) at 2-14 days following IM-EP using an IVIS Imaging System 200 Series (Xenogen) (Wu, J. C., Sundaresan, G., Iyer, M., and Gambhir, S. S. (2001) Noninvasive optical imaging of firefly luciferase reporter gene expression in skeletal muscles of living mice. Molecular Therapy: the Journal of the American Society of Gene Therapy 4, 297-306). Mice were anesthetized by isofluorane (2% flow with oxygen) and dosed intramuscularly with 40 μL of 30 mg per ml D-Luciferin (GoldBio). Bioluminescent images were acquired 5 min post substrate administration and acquired for 1 min with a 24.6 cm field of view. The resultant grayscale images with a colormap overlay were analyzed using the Igor Pro 4.09 software (Livinglmage). Luciferase expression is reported as photons/sec/cm^2/steradian within a uniformly defined region of interest.

[5] = RBC hemolysis at pH 5.0, second value of the cell (pH 7.4:5.0), read-out: HL50 (μM) pH 5.0
[6] = RBC hemolysis at pH 7.4, first value of the cell (pH 7.4:5.0), read-out: HL50 (μM) pH 7.4

Row | Molecule | EC50 (Erythrocytes; [5]) [µM] | EC50 (Erythrocytes; [6]) [µM] | hemolytic activity when combined with pGL3 (Erythrocytes) | DNA band shift on agarose gel (pGL3 [3]) | other results
1 | CC[C@H](C)[C@H](NC(=O)CN)C(=O)NCC(=O)N[C@@H](C)C(=O)N[C@H](C(=O)N[C@@H](CC(C)C)C(=O)N[C@@H](CCCCN)C(=O)N[C@H](C(=O)N[C@@H](CC(C)C)C(=O)N[C@H](C(=O)N[C@H](C(=O)NCC(=O)N[C@@H](CC(C)C)C(=O)N1CCC[C@H]1C(=O)N[C@@H](C)C(=O)N[C@@H](CC(C)C)C(=O)N[C@H](C(=O)N[C@@H](CO)C(=O)N[C@@H](Cc1c[nH]c2ccccc12)C(=O)N[C@H](C(=O)N[C@@H](CCCCN)C(=O)N[C@@H](CCCNC(=N)N)C(=O)N[C@@H](CCCCN)C(=O)N[C@@H](CCCNC(=N)N)C(=O)N[C@@H](CCC(N)=O)C(=O)N[C@@H](CCC(N)=O)C(N)=O)[C@@H](C)CC)[C@@H](C)CC)[C@@H](C)O)[C@@H](C)O)C(C)C)C(C)C [Melittin, reference compound] | 2.3 | 0.9 | nearly unchanged |  | 
2 | Lys(Acr)-Arg-Lys(Acr)-Arg-Lys(Acr)-Arg-Lys(Acr)-Arg-Cys (K(Acr)RK(Acr)RK(Acr)RK(Acr)RC) [poly(Acr-Arg)4-Cys] | > 10 | > 10 |  |  | thiazole orange displacement, asymptote / equivalence point of fluorescence intensity (pGL3 [1]): approximately 0.4 nmols of peptide per μg of DNA; thiazole orange displacement, asymptote / equivalence point of fluorescence intensity (pGL3 [1]; listed as (Acr-Arg)4-Cys): 0.35 nmols of peptide per μg of DNA
3 | (m)GWKKGIGAVLKVLTTGLPALISLIKRKRQQ [Mal-melittin] | 4.8 | 3.84 | maintained their hemolytic activity |  | 
4 | PEGylated-SS-(Acr-Arg)4: (Acr-Arg)4-Cys with Cys thiol reacted with 5 kDa PEG-OPSS, reducible disulfide linkage |  |  |  |  | BLI luciferase expression in liver at 24 hr (liver): approximately 10^7 photons/sec/cm^2/sr
5 | PEG-Cys-Trp-(Lys(Acr))5: PEG5000 Da-maleimide on Cys of Cys-Trp-Lys5, Lys ε-amines conjugated with 6-(9-acridinylamino) hexanoic acid; SEQ ID NO: 5 (C(PEG 5000 Da maleimide)WK(6‑(9-acridinylamino)hexanoyl)K(6‑(9-acridinylamino)hexanoyl)K(6‑(9-acridinylamino)hexanoyl)K(6‑(9-acridinylamino)hexanoyl)K(6‑(9-acridinylamino)hexanoyl)) |  |  |  | complete retardation of DNA migration | zeta potential asymptote ([2]; at 1 nmol per μg of DNA): −5 mV; luciferase expression at day 2, fold decrease versus pGL3 ([4]; formulation 0.2 nmol per μg of DNA, 1 μg pGL3, mice): 100 fold; luciferase expression at day 2 compared with pGL3 ([4]; open polyplex 2 nmol per μg of DNA, 1 μg pGL3, mice): identical expression levels; luciferase expression at day 2, fold lower than pGL3 ([4]; open polyplex 4 nmol per μg of DNA, 1 μg pGL3, mice): approximately 10 fold; loss in expression across the 14 day sampling period ([4]; open polyplexes 4 nmol per μg of DNA, mice): 2-3 fold; decrease of expression over 14 days ([4]; open polyplexes 0.2 and 2 nmol per μg of DNA, mice): 10 fold
6 | PEG-Cys-Trp-(Lys(Acr))4: PEG5000 Da-maleimide on Cys of Cys-Trp-Lys4, Lys ε-amines conjugated with 6-(9-acridinylamino) hexanoic acid; SEQ ID NO: 4 (C(PEG 5000 Da maleimide)WK(6‑(9-acridinylamino)hexanoyl)K(6‑(9-acridinylamino)hexanoyl)K(6‑(9-acridinylamino)hexanoyl)K(6‑(9-acridinylamino)hexanoyl)) |  |  |  | further retarded DNA migration | 
7 | PEG-Cys-Trp-(Lys(Acr))3: PEG5000 Da-maleimide on Cys of Cys-Trp-Lys3, Lys ε-amines conjugated with 6-(9-acridinylamino) hexanoic acid; SEQ ID NO: 3 (C(PEG 5000 Da maleimide)WK(6‑(9-acridinylamino)hexanoyl)K(6‑(9-acridinylamino)hexanoyl)K(6‑(9-acridinylamino)hexanoyl)) |  |  |  | further retarded DNA migration | apparent particle diameter [2]: approximately 200 nm; apparent particle diameter ([2]; listed as PEG-Cys-(Lys(Acr))3): 200 nm; zeta potential over titration ([2]; titrating with 0.1 to 2 nmol per μg of DNA): −15 to −5 mV
8 | CWKKGIGAVLKVLTTGLPALISLIKRKRQQ [Cys-melittin] | 0.7 | 1 | maintained their hemolytic activity; also recorded: nearly unchanged |  | thiazole orange displacement, asymptote / equivalence point of fluorescence intensity (pGL3 [1]): approximately 0.5 nmols of peptide per μg of DNA
9 | PEG-Cys-Trp-(Lys)5: PEGylated Cys-Trp-Lys5 without acridine, SEQ ID NO: 19 (C(PEG)WKKKKK; reading uncertain; also: PEG5000 Da maleimide on Cys, printed as PEG-Cys-Trp-(Lys)5) |  |  |  | unable to cause a band DNA shift | 
10 | (CWKKGIGAVLKVLTTGLPALISLIKRKRQQ)2 [Dimeric-melittin] | 1.2 | 1 |  |  | 
